From patent US20250212892A1, “USE OF THERMALLY HYDROLYZED KERATIN PEPTIDE SOLUTION IN ENHANCING THE YIELD AND QUALITY OF TEA LEAVES” (CH Biotech R&D Co., Ltd., priority 2023, published 2025)

Test system: tea tree (Camellia Sinesis)
Assay: Spring application (soil infusion, then leaf spray twice): tea shoot production and proportion of terminal facing leaves
Format: in vivo
Conditions: urea 200× dilution
Text: The inventors defined a unit area of 30×30 cm^2 for harvesting tea shoot and measuring weights. The inventors further defined a percentage value of cease-growing bud weight relative to the total bud weight, as indication of the increased tea leaf production without advancing the bud-aging side-effect.
One of the experiments involves first soil infusion application one week after initial harvesting, then leaf-spraying of KHP-1 500× solution twice, first time at the one-bud-with-one-leaf stage and second time at one-bud-with-two-leaf stage. In addition to a CK group, another urea application group of 200× dilution (200 kg of water to 1 kg of urea) is also tabulated. The result is shown in FIG. 1A where the tea shoot's production for the KHP-1 500× group is 32.54 g in a 900 cm^2 harvest area, higher than that of the CK group (20.86 g) and urea group (28.69 g).
This is reflected in FIG. 1B.

For `NC(N)=O` [urea], which “tea shoot's production” value (900 cm^2 harvest area, FIG. 1A) is on record?
Its value is 28.69 g.

What about the “proportion of terminal facing leaves” value (FIG. 1B) of the same molecule?
Its value is 47.4%.
